Like-named read-outs stand apart in the source and are kept apart here.
How the values were obtained:
Assay in all cases: Antifungal activity by the well-cut diffusion method
Format in all cases: cell-based
[1] = system: Microsporum gallinna; settings: for zone of inhibition at 500 µg/mL: Microsporum, read-out: Inhibition Zone Dimeter (mm) M. gallina
[2] = system: Microsporum canis; settings: for zone of inhibition at 500 µg/mL / zone of inhibition at 1000 µg/mL: Microsporum canis, read-out: Inhibition Zone Dimeter (mm) M. canis
Procedure: (§1) Microsporum canis and Microsporum gallinna were obtained from King Fahad Hospital in Jeddah, Saudi Arabia
(§2) Antifungal Activity by the Well-Cut Diffusion Method:
Well-cut diffusion technique was used to evaluate the antifungal activities of the_tested compounds [El-Masry et al. “Synthesis and antimicrobial activity of some new benzimidazole derivatives” Molecules, 5 (2002), pp. 1429-1438]. The Sabaroud dexterous agar media was inoculated with 1 ml from tested spore suspension, then wells were cut from the plate using a sterile 10 mm cork-borer. […] All plates were incubated at 4° C. for 2 h to slow fungal growth. The plates were later incubated at 28° C. for a week [Mtolera and Semesi “Antimicrobial activity of extracts from six green algae from Tanzania.” Curr. Trends Mar. Bot. Res. East Afr. Reg. pp. 211-217 (1996)]. After incubation, the diameter of the growth inhibition zone was measured in mm [Attaie et al. Inhibition of growth of S. aureus during production of acidophilus yogurt J. Food Prot., 50 (1987), pp. 224-228], see Table 3.

[3] = system: Microsporum gallinna; settings: for zone of inhibition at 1000 µg/mL: Microsporum, read-out: Inhibition Zone Dimeter (mm) M. gallina
Procedure: as §1, §2
Well-cut diffusion technique was used to evaluate the antifungal activities of the_tested compounds [El-Masry et al. “Synthesis and antimicrobial activity of some new benzimidazole derivatives” Molecules, 5 (2002), pp. 1429-1438]. The Sabaroud dexterous agar media was inoculated with 1 ml from tested spore suspension, then wells were cut from the plate using a sterile 10 mm cork-borer. About 0.5 and 1.0 ml of a chloroform solution containing 1.0 mg/ml of tested compounds were added into each well. All plates were incubated at 4° C. for 2 h to slow fungal growth. The plates were later incubated at 28° C. for a week [Mtolera and Semesi “Antimicrobial activity of extracts from six green algae from Tanzania.” Curr. Trends Mar. Bot. Res. East Afr. Reg. pp. 211-217 (1996)]. After incubation, the diameter of the growth inhibition zone was measured in mm [Attaie et al. Inhibition of growth of S. aureus during production of acidophilus yogurt J. Food Prot., 50 (1987), pp. 224-228], see Table 3.

[4] = Concentration 0.5 mg/mL, 28° C. for a week, 10 mm wells
[5] = Concentration 1.0 mg/mL, 28° C. for a week, 10 mm wells

SMILES	Inhibition Zone Dimeter (mm) M. gallina [1, 4]	Inhibition Zone Dimeter (mm) M. canis [2, 4]	Inhibition Zone Dimeter (mm) M. canis [2, 5]	inhibition of Microsporum canis grown on the solid media (in words) [2]	Inhibition Zone Dimeter (mm) M. gallina [3, 5]	inhibition of Microsporum gallinna grown on the solid media (in words) [3]	zone of inhibition at 500 µg/mL [1]	zone of inhibition at 500 µg/mL [2, 4]	zone of inhibition at 1000 µg/mL [2, 5]	zone of inhibition at 1000 µg/mL [3]	antimicrobial activity against M. gallinna, comparison among tested compounds ([1]; 0.5 mg/ml concentration)	antimicrobial activity against M. canis, comparison among tested compounds ([2]; 0.5 mg/ml concentration)	zone of inhibition at 500 µg/mL [2]	zone of inhibition at 1000 µg/mL [2]
C=CC(C)(CCC1OC1(C)C)OC(C)=O (centres unmarked) [Epoxide 3, 6,7-Epoxy-3,7-dimethyl-1-octene-3-yl-acetate]	37.0 mm	60.0 mm	85.0 mm	strongly inhibited	74.0 mm	strongly inhibited	–	–	–	–	–	–	–	–
CC(=O)OC(C)(CCC=C(C)C)C1CO1 (centres unmarked) [Epoxide 4, 1,2-Epoxy-3,7-dimethyl-6-octene-3-yl acetate]	–	–	–	strongly inhibited	–	strongly inhibited	65 mm	75 mm	85 mm	85 mm	–	–	–	–
C=CC(C)(CCC(OO)C(=C)C)OC(C)=O (centres unmarked) [Hydroperoxide 5, 6-Hydroperoxy-3,7-dimethylocta-1,7-diene-3-yl acetate]	–	–	–	strongly inhibited	–	strongly inhibited	80.5 mm	81 mm	85 mm	85 mm	highest antimicrobial activity	highest antimicrobial activity	–	–
C=CC(C)(CC=CC(C)(C)OO)OC(C)=O (centres unmarked) [Hydroperoxide 6, 7-Hydroperoxy-3,7-dimethylocta-1,5-diene-3-yl acetate]	–	–	–	strongly inhibited	–	strongly inhibited	80 mm	80 mm	85 mm	85 mm	–	–	–	–
C=CC(C)(CCC=C(C)C)OC(C)=O (centres unmarked) [Linalyl acetate, 3,7-Dimethyl-1,6-octadien-3-yl acetate, reference compound]	–	–	–	strongly inhibited	–	strongly inhibited	80 mm	–	–	85 mm	–	–	80 mm	85 mm

Reference: US10584106B1, “Antifungal compounds derived from lavender oil” (King Abdulaziz University, priority 2018, dated 2020)
